In US20230321253A1, “BIFUNCTIONAL COMPOUNDS AND PHARMACEUTICAL USES THEREOF” (RISEN (SUZHOU) PHARMA TECH CO., LTD., priority 2022, published 2023):

Columns and labels:
KRAS-G12D protein = biological target: T1, KRAS-G12D protein (Homo sapiens, UniProt P01116, G12D); assay: KRAS-G12D protein degradation study in Aspc-1 cells (western blot); assay type: cell-based; conditions: for inhibition at 0.05 µM / inhibition at 1 µM / inhibition at 0.1 µM: ASPC1, 24 h; for inhibition at 0.05 µM: Aspc-1 cells treated with 50 nM compound, read-out: Rate of degradation (KRAS^G12D); for DC50: Aspc-1 cells, read-out: DC50 of test compound-induced KRAS^G12D protein degradation; for inhibition at 1 µM: Aspc-1 cells treated with 1 μM compound; for inhibition at 1 µM / inhibition at 0.1 µM: read-out: Rate of protein degradation (KRAS^G12D)
T1 construct: host or cells: Aspc-1 cells
T1 sequence (P01116 1-188 isoform P01116-2 G12D): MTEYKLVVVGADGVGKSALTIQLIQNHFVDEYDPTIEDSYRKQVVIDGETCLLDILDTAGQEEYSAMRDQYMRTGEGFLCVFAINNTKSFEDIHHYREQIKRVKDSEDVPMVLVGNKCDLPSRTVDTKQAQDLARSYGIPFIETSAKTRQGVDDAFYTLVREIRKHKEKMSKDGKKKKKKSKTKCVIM
Procedure, shortened: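 AsPC-1 cells were treated with compound for 24 h at 37° C (0.1% DMSO final), then lysed; KRAS levels measured by western blot. Degradation % = 1 − (KRAS/GAPDH, compound) ÷ (KRAS/GAPDH, DMSO), ×100; DC50 derived from concentration curves.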

Aspc-1 cells = assay: Cell proliferation study in Aspc-1 cells (Cell Titer Glo); assay type: cell-based; conditions: Homo sapiens, ASPC1, 72 hours, read-out: IC50, inhibitory effect on cellular proliferation
Protocol: Aspc-1 (Cobioer, CBP60546) cells were grown in RPMI 1640 (Gibco, 61870127) supplemented with 10% fetal bovine serum (Gibco, 10099141), 1% penicillin-streptomycin (Gibco, 15070-063). Aspc-1 cells in exponential growth phase were seeded into 96-well plate (Corning, 3599) at density of 4×10^3/well. Cells were cultured overnight at 37° C. with 5% CO2. On the next day, cells were treated with test compound at various concentrations for 72 hours in 37° C., 5% CO2 incubator (final DMSO concentration was 0.1%). After treatment, 100 μL Cell Tier Glo (Promega, G7573) was added to every well of the cell plates and the plates were incubated at room temperature (RT) for 10 minutes. Cell growth status was measured with Cell Tier Glo (Promega, G7573) following the manufacturer's instructions. The inhibition curve was obtained with GraphPad 7.0 software using four-parameter equation.

[1] = Aspc-1 cells treated with 0.1 μM compound, 24 hours

SMILES | inhibition at 0.05 µM (KRAS-G12D protein; 24 hours) [%] | DC50 (KRAS-G12D protein) [nM] | IC50 (Aspc-1 cells) [nM] | inhibition at 1 µM (KRAS-G12D protein; 24 hours) [%] | inhibition at 0.1 µM (KRAS-G12D protein; [1]) [%] | Rate of protein degradation (KRAS^G12D) (KRAS-G12D protein; [1])
C#Cc1c(F)ccc2cc(O)cc(-c3ncc4c(N5CC6CCC(C5)N6)nc(OCC5(CN6CCC(C(=O)N7CCC(N8CCC(c9ccc%10c(C%11CCC(=O)NC%11=O)nn(C)c%10c9)CC8)CC7)CC6)CC5)nc4c3F)c12 (centres unmarked) [Compound 129] | > 60 | < 10 | < 100 |  |  | 
CCc1c(F)ccc2cc(O)cc(-c3ncc4c(N5CC6CCC(C5)N6)nc(OC[C@@H]5CCCN5C(=O)CCCCCCCC(=O)N[C@H](C(=O)N5C[C@H](O)C[C@H]5C(=O)NCc5ccc(-c6scnc6C)cc5)C(C)(C)C)nc4c3F)c12 [Compound 35] |  |  | 1000 to 5000 | 31 to 60 |  | 
C#Cc1c(F)ccc2cc(O)cc(-c3ncc4c(N5CC6CCC(C5)N6)nc(OCC5(CN6CCCN(C(=O)CN7CCC(c8ccc9c(C%10CCC(=O)NC%10=O)nn(C)c9c8)CC7)CC6)CC5)nc4c3F)c12 (centres unmarked) [Compound 155] | > 60 | 11 to 50 | < 100 |  |  | 
C#Cc1c(F)ccc2cc(O)cc(-c3ncc4c(N5CC6CCC(C5)N6)nc(OCC5(CN6CCC7(CC6)CC(N6CCN(c8ccc(NC9CCC(=O)NC9=O)cc8F)CC6)C7)CC5)nc4c3F)c12 (centres unmarked) [Compound 150] | > 60 | < 10 | < 100 |  |  | 
C#Cc1c(F)ccc2cc(O)cc(-c3ncc4c(N5CC6CCC(C5)N6)nc(OCC5(CN6CCC7(CC6)CC(N6CCN(c8ccc9c(c8)C(=O)N(C8CCC(=O)NC8=O)C9=O)CC6)C7)CC5)nc4c3F)c12 (centres unmarked) [Compound 154] | > 60 | < 10 | < 100 |  |  | 
C#Cc1c(F)ccc2cc(O)cc(-c3ncc4c(N5CC6CCC(C5)N6)nc(OCC5(CN6CC7(CC(N8CCC(c9ccc%10c(C%11CCC(=O)NC%11=O)nn(C)c%10c9)CC8)C7)C6)CC5)nc4c3F)c12 (centres unmarked) [Compound 169] | > 60 |  | < 100 |  |  | 
C#Cc1c(F)ccc2cc(O)cc(-c3ncc4c(N5CC6CCC(C5)N6)nc(OCC5(CN6CCC(CN7CCC(c8ccc9c%10c(cccc8%10)C(=O)N9C8CCC(=O)NC8=O)CC7)CC6)CC5)nc4c3F)c12 (centres unmarked) [Compound 168] | > 60 |  | < 100 |  |  | 
C#Cc1c(F)ccc2cc(O)cc(-c3ncc4c(N5CC6CCC(C5)N6)nc(OC5CCN(CCCCCCCCCCCCCC(=O)N[C@H](C(=O)N6C[C@H](O)C[C@H]6C(=O)NCc6ccc(-c7scnc7C)cc6)C(C)(C)C)CC5)nc4c3F)c12 [Compound 47] |  |  | 1000 to 5000 | 31 to 60 |  | 
C#Cc1c(F)ccc2cc(O)cc(-c3ncc4c(N5CC6CCC(C5)N6)nc(OCC5(CN6CCC7(CC6)CC(N6CCC(c8cccc9c8CN(C8CCC(=O)NC8=O)C9=O)CC6)C7)CC5)nc4c3F)c12 (centres unmarked) [Compound 157] | 11 to 30 | > 200 | 101 to 1000 |  |  | 
C#Cc1c(F)ccc2cc(O)cc(-c3ncc4c(N5CC6CCC(C5)N6)nc(OCCN5CCN(CCCCCCCC(=O)N[C@H](C(=O)N6C[C@H](O)C[C@H]6C(=O)NCc6ccc(-c7scnc7C)cc6)C(C)(C)C)CC5)nc4c3F)c12 [Compound 32] |  |  | 1000 to 5000 | 11 to 30 |  | 
C#Cc1c(F)ccc2cc(O)cc(-c3ncc4c(N5CC6CCC(C5)N6)nc(OCC5(CN6CCC(CN7CCC(c8ccc9c(c8)CN(C8CCC(=O)NC8=O)C9=O)CC7)CC6)CC5)nc4c3F)c12 (centres unmarked) [Compound 146] | > 60 | < 10 | < 100 |  |  | 
C#Cc1c(F)ccc2cc(O)cc(-c3ncc4c(N5CC6CCC(C5)N6)nc(OC5CCN(CCCCCCCCCCCC(=O)N[C@H](C(=O)N6C[C@H](O)C[C@H]6C(=O)NCc6ccc(-c7scnc7C)cc6)C(C)(C)C)CC5)nc4c3F)c12 [Compound 46] |  |  | 101 to 1000 | > 60 |  | 
C#Cc1c(F)ccc2cc(O)cc(-c3ncc4c(N5CC6CCC(C5)N6)nc(OCC5(CN6CCC(C(=O)N7CCC8(CC7)CC(N7CCC(c9ccc%10c(C%11CCC(=O)NC%11=O)nn(C)c%10c9)CC7)C8)CC6)CC5)nc4c3F)c12 (centres unmarked) [Compound 111] |  | < 10 | < 100 |  | > 60 | 
C#Cc1c(F)ccc2cc(O)cc(-c3ncc4c(N5CC6CCC(C5)N6)nc(OCC5(CN6CCC(CN7CCN(c8cccc9c8C(=O)N(C8CCC(=O)NC8=O)C9=O)CC7)CC6)CC5)nc4c3F)c12 (centres unmarked) [Compound 135] | 31 to 60 | < 10 | < 100 |  |  | 
C#Cc1c(F)ccc2cc(O)cc(-c3ncc4c(N5CC6CCC(C5)N6)nc(OC5CCN(CCCCCCCCCC(=O)N6CCC(c7ccc8c(C9CCC(=O)NC9=O)nn(C)c8c7)CC6)CC5)nc4c3F)c12 (centres unmarked) [Compound 50] |  |  | 1000 to 5000 | 11 to 30 |  | 
C#Cc1c(F)ccc2cc(O)cc(-c3ncc4c(N5CC6CCC(C5)N6)nc(OCC5(CN6CCN(C(=O)CN7CCC(c8ccc9c(C%10CCC(=O)NC%10=O)nn(C)c9c8)CC7)CC6)CC5)nc4c3F)c12 (centres unmarked) [Compound 92] |  | < 10 | < 100 |  |  | +++ (greater than 60%)
C#Cc1c(F)ccc2cc(O)cc(-c3ncc4c(N5CC6CCC(C5)N6)nc(OCCCN5CCN(CCCCCCC(=O)N[C@H](C(=O)N6C[C@H](O)C[C@H]6C(=O)NCc6ccc(-c7scnc7C)cc6)C(C)(C)C)CC5)nc4c3F)c12 [Compound 29] |  |  | 1000 to 5000 | 31 to 60 |  | 
C#Cc1c(F)ccc2cc(O)cc(-c3ncc4c(N5CC6CCC(C5)N6)nc(OCCCN5CCN(CCCCCCCC(=O)N[C@H](C(=O)N6C[C@H](O)C[C@H]6C(=O)NCc6ccc(-c7scnc7C)cc6)C(C)(C)C)CC5)nc4c3F)c12 [Compound 31] |  |  | 1000 to 5000 | > 60 |  | 
C#Cc1c(F)ccc2cc(O)cc(-c3ncc4c(N5CC6CCC(C5)N6)nc(OC5CCN(CCCCCCCCCCC(=O)N[C@H](C(=O)N6C[C@H](O)C[C@H]6C(=O)N[C@@H](C)c6ccc(-c7scnc7C)cc6)C(C)(C)C)CC5)nc4c3F)c12 [Compound 45] |  |  | 101 to 1000 | > 60 | 31 to 60 | 
C#Cc1c(F)ccc2cc(O)cc(-c3ncc4c(N5CC6CCC(C5)N6)nc(OCC5(CN6CCC7(CC6)CC(N6CCC(c8ccc9c%10c(cccc8%10)C(=O)N9C8CCC(=O)NC8=O)CC6)C7)CC5)nc4c3F)c12 (centres unmarked) [Compound 158] | > 60 | < 10 | < 100 |  |  | 
C#Cc1c(F)ccc2cc(O)cc(-c3ncc4c(N5CC6CCC(C5)N6)nc(OCC5(CN6CCC7(CC6)CC(N6CCC(c8ccc9c(C%10CCC(=O)NC%10=O)nn(C)c9c8)CC6)C7)CC5)nc4c3F)c12 (centres unmarked) [Compound 112] |  | < 10 | < 100 |  | > 60 | 
C#Cc1c(F)ccc2cc(O)cc(-c3ncc4c(N5CC6CCC(C5)N6)nc(OC5CCN(CCCCCCCCCCC(=O)N[C@H](C(=O)N6C[C@H](O)C[C@H]6C(=O)NCc6ccc(-c7scnc7C)cc6)C(C)(C)C)CC5)nc4c3F)c12 [Compound 43] |  |  | 101 to 1000 | > 60 |  | 
